Reference: patent US8889704B2 (Array BioPharma Inc., priority 2011, dated 2014)
Counter-ions that a name gives are not always drawn.

Tests used:
Type in all cases: biochemical
PIM-1 = PIM-1 (Homo sapiens, UniProt P11309); experiment: Enzyme PIM-1 Assay ([33P]ATP incorporation into PIM2tide, filter plate); conditions: averaged IC50; 35 μM ATP, 7.5 μM PIM2tide, 0.25 nM PIM-1, 60 min at 22° C.
Procedure, shortened: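 Radiometric assay: 0.25 nM PIM-1 phosphorylates 7.5 μM PIM2tide with 35 μM [γ-33P]ATP in 20 mM MOPS pH 7.4, 10 mM MgCl2, 1 mM DTT, 0.005% Tween-20, 60 min at 22 °C. Product captured on P81 filters, scintillation counted; 10-point 3-fold curve from 10 μM top, 2% DMSO, IC50 by 4-parameter logistic fit of POC.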

[1] = biological target: T1, GST-tagged recombinant full-length human Pim-2 (Homo sapiens, UniProt Q9P1W9); experiment: PIM-2 Assay (as Example A); conditions: averaged IC50; 4 μM ATP, 1.0 μM PIM2tide, 1.5 nM Pim-2
T1 construct: GST-tagged recombinant full-length human Pim-2; GST
T1 sequence (Q9P1W9 whole entry): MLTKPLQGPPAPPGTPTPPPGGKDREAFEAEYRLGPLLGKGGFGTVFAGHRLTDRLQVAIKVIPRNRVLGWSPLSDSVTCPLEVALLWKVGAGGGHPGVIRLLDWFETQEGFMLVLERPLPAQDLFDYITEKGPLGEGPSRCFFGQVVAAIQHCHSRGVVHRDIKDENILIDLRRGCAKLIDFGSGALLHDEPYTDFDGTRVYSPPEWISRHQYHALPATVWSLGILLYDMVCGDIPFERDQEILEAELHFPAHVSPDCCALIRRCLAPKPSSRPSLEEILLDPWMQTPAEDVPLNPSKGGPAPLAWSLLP
Procedure, shortened: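 Radiometric filter-binding assay: GST-tagged full-length human Pim-2 (1.5 nM) phosphorylates 1.0 μM PIM2tide with 4 μM [γ-33P]ATP for 60 min at 22 °C in pH 7.4 MOPS buffer, 2% DMSO. 10-point 3-fold dilutions from 10 μM top dose; IC50 from 4-parameter fit of percent of control.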

recombinant rat PIM-3 = recombinant rat PIM-3 (Rattus norvegicus, UniProt O70444); experiment: PIM-3 Assay (as Example A); conditions: averaged IC50; 30 μM ATP, 3.75 μM PIM2tide, 0.5 nM PIM-3
Procedure, shortened: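 Recombinant rat PIM-3 (0.5 nM) with 3.75 μM PIM2tide and 30 μM [γ-33P]ATP in MOPS pH 7.4 buffer, 60 min at 22 °C; labelled peptide captured on phosphocellulose filters and counted by scintillation. 10-point curve (top dose 10 μM, 2% DMSO); IC50 from 4-parameter fit of percent of control.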

Chain of PIM-1 (P11309 whole entry, species assumed): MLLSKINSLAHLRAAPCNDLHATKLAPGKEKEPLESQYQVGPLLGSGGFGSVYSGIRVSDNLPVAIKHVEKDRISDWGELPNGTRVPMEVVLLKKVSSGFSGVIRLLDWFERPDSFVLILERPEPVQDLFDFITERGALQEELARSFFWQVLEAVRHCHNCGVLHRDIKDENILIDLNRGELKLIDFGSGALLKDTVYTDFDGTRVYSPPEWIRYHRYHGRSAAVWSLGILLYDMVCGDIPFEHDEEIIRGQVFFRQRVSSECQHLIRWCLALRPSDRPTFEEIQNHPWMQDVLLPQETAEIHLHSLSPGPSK

SMILES	IC50 (PIM-1)	IC50 [1]	IC50 (recombinant rat PIM-3)
N[C@H]1CCN([C@H](c2ccc3nnc(-c4ccc5cc(F)c(OCCO)cc5n4)n3c2)C(F)(F)F)C1 [Example 123, 2-(2-(6-((R)-1-((S)-3-aminopyrrolidin-1-yl)-2,2,2-trifluoroethyl)-[1,2,4]triazolo[4,3-a]pyridin-3-yl)-6-fluoroquinolin-7-yloxy)ethanol hydrochloride]	0.2 nM	73 nM	0.4 nM
COc1cc2nc(-c3nnc4ccc([C@@H](N5C[C@@H](N)[C@@H](F)C5)C(F)(F)F)cn34)ccc2cc1F [Example 210, (3R,4S)-4-fluoro-1-((R)-2,2,2-trifluoro-1-(3-(6-fluoro-7-methoxyquinolin-2-yl)-[1,2,4]triazolo[4,3-a]pyridin-6-yl)ethyl)pyrrolidin-3-amine dihydrochloride]	> 100 nM	> 1000 nM	> 100 nM
COCCOc1ccc2ccc(-c3nnc4ccc([C@@H](N5CC[C@H](N)C5)C(F)(F)F)cn34)nc2c1C [Example 117, (S)-1-((R)-2,2,2-trifluoro-1-(3-(7-(2-methoxyethoxy)-8-methylquinolin-2-yl)-[1,2,4]triazolo[4,3-a]pyridin-6-yl)ethyl)pyrrolidin-3-amine hydrochloride]	0.21 nM	210 nM	0.4 nM
CC(C)C(=O)Nc1ccc2ccc(-c3nnc4ccc([C@@H](N5CC[C@H](O)C5)C(F)(F)F)cn34)nc2c1 [Example 106, N-(2-(6-((R)-2,2,2-trifluoro-1-((S)-3-hydroxypyrrolidin-1-yl)ethyl)-[1,2,4]triazolo[4,3-a]pyridin-3-yl)quinolin-7-yl)isobutyramide]	1.62 nM	> 100 nM	3.4 nM
CN[C@H]1CCN([C@H](c2ccc3nnc(-c4ccc5cccc(OC(C)C)c5n4)n3c2)C(F)(F)F)C1 [Example 36, (S)—N-methyl-1-((R)-2,2,2-trifluoro-1-(3-(8-isopropoxyquinolin-2-yl)-[1,2,4]triazolo[4,3-a]pyridin-6-yl)ethyl)pyrrolidin-3-amine dihydrochloride]	0.18 nM	32 nM	2 nM
CC(=O)N[C@H]1CCN(C(c2ccc3nnc(-c4ccc5cccc(OCC6CC6)c5n4)n3c2)C(F)(F)F)C1 (stereo partly drawn) [Example 50, N-((3S)-1-(1-(3-(8-(cyclopropylmethoxy)quinolin-2-yl)-[1,2,4]triazolo[4,3-a]pyridin-6-yl)-2,2,2-trifluoroethyl)pyrrolidin-3-yl)acetamide]	4.88 nM	> 100 nM	41 nM
Cn1cc(-c2ccc3ccc(-c4nnc5ccc([C@H](N6CCC(C)(O)C6)C(F)(F)F)cn45)nc3c2)cn1 (single isomer, unassigned; diastereomer 1) [Example 200]	1.86 nM	137 nM	3.4 nM
COc1cccc2ccc(-c3nnc4ccc([C@@H](N5CCC(C)(O)C5)C(F)(F)F)cn34)nc12 (single isomer, unassigned; diastereomer 2) [Example 194, hydrochloride]	> 100 nM	> 1000 nM	> 100 nM
CC(C)Oc1cc(F)cc2ccc(-c3nnc4ccc([C@@H](N5C[C@@H](N)[C@H](O)C5)C(F)(F)F)cn34)nc12 [Example 147, (3R,4R)-4-amino-1-((R)-2,2,2-trifluoro-1-(3-(6-fluoro-8-isopropoxyquinolin-2-yl)-[1,2,4]triazolo[4,3-a]pyridin-6-yl)ethyl)pyrrolidin-3-ol dihydrochloride]	0.11 nM	36 nM	0.3 nM
CCOc1cc2nc(-c3nnc4ccc([C@@H](N5CC[C@@](C)(N)C5)C(F)(F)F)cn34)ccc2cc1F [Example 293, (R)-1-((R)-1-(3-(7-ethoxy-6-fluoroquinolin-2-yl)-[1,2,4]triazolo[4,3-a]pyridin-6-yl)-2,2,2-trifluoroethyl)-3-methylpyrrolidin-3-amine hydrochloride]	0.4 nM	468 nM	1.1 nM
N[C@H]1CCN([C@@H](c2ccc3nnc(-c4ccc5ccc(C6CC6)cc5n4)n3c2)C(F)(F)F)C1 (single isomer, unassigned) [Example 12]	0.4 nM	51 nM	1.1 nM
N[C@H]1CCN([C@H](c2ccc3nnc(-c4ccc5cc(F)cc(OCC6CC6)c5n4)n3c2)C(F)(F)F)C1 [Example 158, (S)-1-((R)-1-(3-(8-(cyclopropylmethoxy)-6-fluoroquinolin-2-yl)-[1,2,4]triazolo[4,3-a]pyridin-6-yl)-2,2,2-trifluoroethyl)pyrrolidin-3-amine hydrochloride]	0.16 nM	41 nM	1.1 nM
CC(C)Sc1ccc2ccc(-c3nnc4ccc([C@@H](N5CC[C@H](N)C5)C(F)(F)F)cn34)nc2c1 [Example 268, (S)-1-((R)-2,2,2-trifluoro-1-(3-(7-(isopropylthio)quinolin-2-yl)-[1,2,4]triazolo[4,3-a]pyridin-6-yl)ethyl)pyrrolidin-3-amine hydrochloride]	0.89 nM	> 1000 nM	3.4 nM
CC(C)Oc1cccc2ccc(-c3nnc4ccc([C@@H](N5C[C@@H](N)[C@H](O)C5)C(F)(F)F)cn34)nc12 [Example 146, (3R,4R)-4-amino-1-((R)-2,2,2-trifluoro-1-(3-(8-isopropoxyquinolin-2-yl)-[1,2,4]triazolo[4,3-a]pyridin-6-yl)ethyl)pyrrolidin-3-ol dihydrochloride]	0.13 nM	34 nM	0.3 nM
COCC1(c2cccc3ccc(-c4nnc5ccc([C@@H](N6CC[C@H](N)C6)C(F)(F)F)cn45)nc23)CC1 [Example 112, (S)-1-((R)-2,2,2-trifluoro-1-(3-(8-(1-(methoxymethyl)cyclopropyl)quinolin-2-yl)-[1,2,4]triazolo[4,3-a]pyridin-6-yl)ethyl)pyrrolidin-3-amine dihydrochloride]	0.12 nM	21 nM	1.4 nM
Cc1cccc2ccc(-c3nnc4ccc([C@@H](N5CC[C@H](N)C5)C(F)(F)F)cn34)nc12 [Example 183, (S)-1-((R)-2,2,2-trifluoro-1-(3-(8-methylquinolin-2-yl)-[1,2,4]triazolo[4,3-a]pyridin-6-yl)ethyl)pyrrolidin-3-amine dihydrochloride]	0.27 nM	> 100 nM	1.2 nM
COc1cccc2ccc(-c3nnc4ccc(C(N5C[C@H](O)[C@@H](O)C5)C(F)(F)F)cn34)nc12 (stereo partly drawn) [Example 19, (3S,4S)-1-(2,2,2-trifluoro-1-(3-(8-methoxyquinolin-2-yl)-[1,2,4]triazolo[4,3-a]pyridin-6-yl)ethyl)pyrrolidine-3,4-diol]	2.38 nM	> 1000 nM	25 nM
COc1cccc2ccc(-c3nnc4ccc([C@@H](N5C[C@@H](N)[C@@H](O)C5)C(F)(F)F)cn34)nc12 [Example 137, (3S,4R)-4-amino-1-((R)-2,2,2-trifluoro-1-(3-(8-methoxyquinolin-2-yl)-[1,2,4]triazolo[4,3-a]pyridin-6-yl)ethyl)pyrrolidin-3-ol dihydrochloride]	3.5 nM	> 1000 nM	34 nM
COc1cccc2ccc(-c3nnc4ccc([C@H](N5CC[C@](C)(N)C5)C(F)(F)F)cn34)nc12 [Example 217, (S)-3-methyl-1-((S)-2,2,2-trifluoro-1-(3-(8-methoxyquinolin-2-yl)-[1,2,4]triazolo[4,3-a]pyridin-6-yl)ethyl)pyrrolidin-3-amine dihydrochloride]	0.32 nM	40 nM	0.4 nM
N[C@@H]1CCN([C@H](c2ccc3nnc(-c4ccc5cccc(C6CC6)c5n4)n3c2)C(F)(F)F)C1 [Example 47, (R)-1-((R)-1-(3-(8-cyclopropylquinolin-2-yl)-[1,2,4]triazolo[4,3-a]pyridin-6-yl)-2,2,2-trifluoroethyl)pyrrolidin-3-amine dihydrochloride]	0.09 nM	51 nM	3.8 nM
Cc1c(-c2cc3nc(-c4nnc5ccc([C@@H](N6CC[C@H](N)C6)C(F)(F)F)cn45)ccc3cc2F)cnn1C [Example 206, (3 S)-1-((1R)-1-(3-(7-(1,5-dimethyl-1H-pyrazol-4-yl)-6-fluoroquinolin-2-yl)-[1,2,4]triazolo[4,3-a]pyridin-6-yl)-2,2,2-trifluoroethyl)pyrrolidin-3-amine dihydrochloride]	0.09 nM	55 nM	0.1 nM
CC1(NC(=O)c2ccc3ccc(-c4nnc5ccc([C@@H](N6CC[C@@H](N)C6)C(F)(F)F)cn45)nc3c2)CC1 [Example 55, 2-(6-((R)-1-((R)-3-aminopyrrolidin-1-yl)-2,2,2-trifluoroethyl)-[1,2,4]triazolo[4,3-a]pyridin-3-yl)-N-(1-methylcyclopropyl)quinoline-7-carboxamide dihydrochloride]	0.25 nM	35 nM	0.3 nM
